Experimental data taken from US20240294895A1, “ENZYMATIC COMPOSITIONS FOR CARBOHYDRATE ANTIGEN CLEAVAGE ON DONOR ORGANS, METHODS AND USES ASSOCIATED THEREWITH” (THE UNIVERSITY OF BRITISH COLUMBIA, priority 2018, published 2024).

How the values were obtained:
Assay type in all cases: biochemical
[1] = test system: Flavonifractor plautii GalNAcDeacetylase FpGalNAcDeAc_D1min, mutant H252A; assay: Cleavage of A antigen Type2tetra-MU by FpGalNAcDeAc_D1min H252A; conditions: substrate depletion method for low-activity mutants
Protocol: (§1) kcat/KM parameter were determined for A antigen subtype 1/2/4tetra-MU at pH 7.4 at 37° C. Reactions (total volume of 100 μL) were performed in black 96-plate wells and as coupled assays in 100 mM NaH2PO4 (pH 7.4) with 12 nM FpGalNAcDeacetylase 0.1 mg/mL SpHex, BgaC (BgaA for subtype II), AfcA, at varying concentrations of substrate (25 μM, 20 μM, 15 μM, 10 μM, 7.5 μM, 5 μM). The reactions were run as a series of four with controls (no FpGalNAcDeacetylase) as duplicates. The fluorescence signal (365/435 nm) resulting from MU release by hydrolysis was monitored on a Synergy H1™ plate reader (BioTek™) and converted to concentration using MU standard concentration curves determined under identical reaction conditions. Initial rates (μM/s) were determined and plotted in Grafit™ 7.0 to determine the kcat/KM (s^−1*mM^−1) parameters.
(§2) Based on structural information (not shown) and sequence alignment (not shown) FpGalNAcDeAc_D1min and FpGalNase_truncA were mutated using the QuickChange™ protocol (Zhang 2004), utilizing the primers noted in TABLE B. The mutants were purified via NiNTA and HIC columns as described above. The structural integrity of all mutants was checked via CD spectroscopy; all tested enzymes were structurally similar to their wild-type. […]

[2] = test system: Flavonifractor plautii GalNAcDeacetylase FpGalNAcDeAc_D1min, mutant Y315F; assay: Cleavage of A antigen Type2tetra-MU by FpGalNAcDeAc_D1min Y315F; conditions: substrate depletion method for low-activity mutants
Protocol: as §1, §2

[3] = test system: Flavonifractor plautii GalNAcDeacetylase FpGalNAcDeAc_D1min, mutant D100N; assay: Cleavage of A antigen Type2tetra-MU by FpGalNAcDeAc_D1min D100N; conditions: substrate depletion method for low-activity mutants
Protocol: kcat/KM parameter were determined for A antigen subtype 1/2/4tetra-MU at pH 7.4 at 37° C. […] The reactions were run as a series of four with controls (no FpGalNAcDeacetylase) as duplicates. The fluorescence signal (365/435 nm) resulting from MU release by hydrolysis was monitored on a Synergy H1™ plate reader (BioTek™) and converted to concentration using MU standard concentration curves determined under identical reaction conditions. […]
Based on structural information (not shown) and sequence alignment (not shown) FpGalNAcDeAc_D1min and FpGalNase_truncA were mutated using the QuickChange™ protocol (Zhang 2004), utilizing the primers noted in TABLE B. The mutants were purified via NiNTA and HIC columns as described above. The structural integrity of all mutants was checked via CD spectroscopy; all tested enzymes were structurally similar to their wild-type. For mutants with relatively low activity, reactions were carried out under the same conditions used for full kinetic determinations; however the substrate depletion method was used for determination of kcat/KM values as has been previously described (Vocadlo 2002). In brief: at low concentrations of substrate where [Substrate]<KM (equivalent to ˜⅕- 1/10 of Km) the kcat/KM value can be approximated upon non-linear fitting of the reaction time course to a first order curve and dividing by the enzyme concentration.

[4] = test system: Flavonifractor plautii GalNAcDeacetylase FpGalNAcDeAc_D1min, mutant C99A; assay: Cleavage of A antigen Type2tetra-MU by FpGalNAcDeAc_D1min C99A; conditions: pH 7.4, 37° C.
Protocol: as §1, §2

[5] = test system: Flavonifractor plautii GalNAcDeacetylase FpGalNAcDeAc_D1min, mutant H252F; assay: Cleavage of A antigen Type2tetra-MU by FpGalNAcDeAc_D1min H252F; conditions: substrate depletion method for low-activity mutants
Protocol: as §1, with “Initial rates (μM/s) were determined and plotted in Grafit™ 7.0 to determine the kcat/KM (s^−1*mM^−1) parameters.” left out
as §2

[6] = test system: Flavonifractor plautii GalNAcDeacetylase FpGalNAcDeAc_D1min, mutant C99S; assay: Cleavage of A antigen Type2tetra-MU by FpGalNAcDeAc_D1min C99S; conditions: pH 7.4, 37° C.
Protocol: as §1, §2

CC(=O)N[C@H]1[C@H](Oc2ccc3c(C)cc(=O)oc3c2)O[C@H](CO)[C@@H](O[C@@H]2O[C@H](CO)[C@H](O)[C@H](O[C@H]3O[C@H](CO)[C@H](O)[C@H](O)[C@H]3NC(C)=O)[C@H]2O[C@@H]2O[C@@H](C)[C@@H](O)[C@@H](O)[C@@H]2O)[C@@H]1O [A antigen Type2tetra-MU]
kcat/Km [1]: 1.4 ± 0.2 M⁻¹ s⁻¹ | kcat/Km [2]: 2.78 ± 0.65 M⁻¹ s⁻¹ | kcat/Km [3]: 1.22 ± 0.083 M⁻¹ s⁻¹ | kcat/Km [4]: 2344.67 ± 96.63 M⁻¹ s⁻¹ | kcat/Km [5]: 0.5 ± 0.033 M⁻¹ s⁻¹ | kcat/Km [6]: 1259.9 ± 41.52 M⁻¹ s⁻¹
